Source: ChEMBL document CHEMBL3886529, “PDE10a inhibitors for the treatment of type II diabetes” (2016)

Target: T1, cAMP and cAMP-inhibited cGMP 3',5'-cyclic phosphodiesterase 10A (Rattus norvegicus, UniProt Q9QYJ6)
T1 sequence (Q9QYJ6 whole entry): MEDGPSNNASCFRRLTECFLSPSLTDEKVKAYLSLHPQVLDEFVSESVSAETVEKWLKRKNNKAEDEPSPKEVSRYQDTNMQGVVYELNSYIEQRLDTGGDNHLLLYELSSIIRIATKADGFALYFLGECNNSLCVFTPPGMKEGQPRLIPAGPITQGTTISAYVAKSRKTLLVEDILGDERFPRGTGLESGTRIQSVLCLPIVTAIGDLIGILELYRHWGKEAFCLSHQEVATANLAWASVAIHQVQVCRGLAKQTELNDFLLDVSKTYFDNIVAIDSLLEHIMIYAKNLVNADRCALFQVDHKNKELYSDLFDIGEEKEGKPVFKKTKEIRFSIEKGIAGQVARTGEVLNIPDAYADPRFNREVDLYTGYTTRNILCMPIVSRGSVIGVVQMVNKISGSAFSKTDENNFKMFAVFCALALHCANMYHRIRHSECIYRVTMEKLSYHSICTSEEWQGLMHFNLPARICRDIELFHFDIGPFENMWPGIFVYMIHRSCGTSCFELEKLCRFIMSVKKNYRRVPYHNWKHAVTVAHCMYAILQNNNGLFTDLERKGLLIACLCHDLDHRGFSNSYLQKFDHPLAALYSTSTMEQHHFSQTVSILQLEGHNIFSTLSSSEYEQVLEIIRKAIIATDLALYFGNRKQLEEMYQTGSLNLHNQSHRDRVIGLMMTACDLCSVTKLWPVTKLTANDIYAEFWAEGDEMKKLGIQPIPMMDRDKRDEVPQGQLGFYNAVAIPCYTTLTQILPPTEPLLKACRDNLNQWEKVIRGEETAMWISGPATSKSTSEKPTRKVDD
Test: In Vitro Assay rPDE10: Rat recombinant PDE10a (rPDE10a) was expressed in Sf9 cells using a recombinant rPDE10a baculovirus construct. Cells were harvested after 48 h of infection and the rPDE10a protein was purified by metal chelate chromatography on Ni-sepharose 6FF. Tested compounds were dissolved and diluted in 100% DMSO to a concentration 100 fold of the final concentration in the assay. Compound dilutions (0.4 uL) were added in 384 well plates to 20 uL of incubation buffer (50 mM Tris pH 7.8, 8.3 mM MgCl2, 1.7 mM EGTA). 10 uL of rPDE10a enzyme in incubation buffer was added and the reaction was started by addition of 10 uL substrate to a final concentration of 60 nM cAMP and 0.008 uCi 3H-cAMP. The reaction was incubated for 60 min at rt. After incubation, the reaction was stopped with 20 uL of 17.8 mg/mL PDE SPA beads. After sedimentation of the beads during 30 min the radioactivity was measured in a Perkin Elmer Topcount scintillation counter and results were expressed as cpm. For blank values the enz

SMILES	IC50
c1ccc2nc(OCc3cn4c(C5CCNCC5)cnc(N5CCOCC5)c4n3)ccc2c1	562 nM
O=C(O)c1cc(/C=C/c2cn3ccnc(N4CCOCC4)c3n2)nc2ccccc12	9 nM
O=C1Nc2ccc(-c3cnc(N4CCOCC4)c4nc(CCc5ccc6ccccc6n5)cn34)cc2C1(F)F	19 nM
